According to ChEMBL document CHEMBL5385976, “Recognition of arylmethylidene derivatives of imidazothiazolotriazinones as novel tubulin polymerization inhibitors” (RSC Med Chem, 2024):

Legend:
Format in all cases: functional
TK-10 = assay: Anticancer activity against human TK-10 cells assessed as cell growth at 10 umol/L incubated for 48 hrs by SRB assay relative to control; settings: TK-10, 48 h, dose 10 µmol/L, read-out: Activity
CCRF-CEM = assay: Anticancer activity against human CCRF-CEM cells assessed as cell growth at 10 umol/L incubated for 48 hrs by SRB assay relative to control; settings: dose 10 µmol/L, read-out: Activity
SK-MEL-2 = assay: Anticancer activity against human SK-MEL-2 cells assessed as cell growth at 10 umol/L incubated for 48 hrs by SRB assay relative to control; settings: SK-MEL-2, 48 h, dose 10 µmol/L, read-out: Activity
NCI-H522 = assay: Anticancer activity against human NCI-H522 cells assessed as cell growth at 10 umol/L incubated for 48 hrs by SRB assay relative to control; settings: NCI-H522, 48 h, dose 10 µmol/L, read-out: Activity
MDA-MB-231 = assay: Anticancer activity against human MDA-MB-231 cells assessed as cell growth at 10 umol/L incubated for 48 hrs by SRB assay relative to control; settings: MDA-MB-231, 48 h, dose 10 µmol/L, read-out: Activity
PC-3 = assay: Anticancer activity against human PC-3 cells assessed as cell growth at 10 umol/L incubated for 48 hrs by SRB assay relative to control; settings: PC-3, 48 h, dose 10 µmol/L, read-out: Activity
U-251 = assay: Anticancer activity against human U-251 cells assessed as cell growth at 10 umol/L incubated for 48 hrs by SRB assay relative to control; settings: U-251, 48 h, dose 10 µmol/L, read-out: Activity
LOX IMVI = assay: Anticancer activity against human LOX IMVI cells assessed as cell growth at 10 umol/L incubated for 48 hrs by SRB assay relative to control; settings: dose 10 µmol/L, read-out: Activity
HOP-92 = assay: Anticancer activity against human HOP-92 cells assessed as cell growth at 10 umol/L incubated for 48 hrs by SRB assay relative to control; settings: HOP-92, 48 h, dose 10 µmol/L, read-out: Activity
MDA-MB-435 = assay: Anticancer activity against human MDA-MB-435 cells assessed as cell growth at 10 umol/L incubated for 48 hrs by SRB assay relative to control; settings: MDA-MB-435, 48 h, dose 10 µmol/L, read-out: Activity
OVCAR-4 = assay: Anticancer activity against human OVCAR-4 cells assessed as cell growth at 10 umol/L incubated for 48 hrs by SRB assay relative to control; settings: OVCAR-4, 48 h, dose 10 µmol/L, read-out: Activity
NCI/ADR-RES = assay: Anticancer activity against human NCI-ADR-RES cells assessed as cell growth at 10 umol/L incubated for 48 hrs by SRB assay relative to control; settings: dose 10 µmol/L, read-out: Activity
CAKI-1 = assay: Anticancer activity against human CAKI-1 cells assessed as cell growth at 10 umol/L incubated for 48 hrs by SRB assay relative to control; settings: CAKI-1, 48 h, dose 10 µmol/L, read-out: Activity
UO-31 = assay: Anticancer activity against human UO-31 cells assessed as cell growth at 10 umol/L incubated for 48 hrs by SRB assay relative to control; settings: UO-31, 48 h, dose 10 µmol/L, read-out: Activity
RPMI-8226 = assay: Anticancer activity against human RPMI-8226 cells assessed as cell growth at 10 umol/L incubated for 48 hrs by SRB assay relative to control; settings: RPMI-8226, 48 h, dose 10 µmol/L, read-out: Activity
SF-539 = assay: Anticancer activity against human SF-539 cells assessed as cell growth at 10 umol/L incubated for 48 hrs by SRB assay relative to control; settings: SF-539, 48 h, dose 10 µmol/L, read-out: Activity
NCI-H23 = assay: Anticancer activity against human NCI-H23 cells assessed as cell growth at 10 umol/L incubated for 48 hrs by SRB assay relative to control; settings: NCI-H23, 48 h, dose 10 µmol/L, read-out: Activity
K562 [1] = assay: Anticancer activity against human K562 cells assessed as cell growth at 10 umol/L incubated for 48 hrs by SRB assay relative to control; settings: K562, 48 h, dose 10 µmol/L, read-out: Activity
HCT-15 = assay: Anticancer activity against human HCT-15 cells assessed as cell growth at 10 umol/L incubated for 48 hrs by SRB assay relative to control; settings: HCT-15, 48 h, dose 10 µmol/L, read-out: Activity
786-0 = assay: Anticancer activity against human 786-0 cells assessed as cell growth at 10 umol/L incubated for 48 hrs by SRB assay relative to control; settings: 786-0, 48 h, dose 10 µmol/L, read-out: Activity
MCF7 = assay: Anticancer activity against human MCF7 cells assessed as cell growth at 10 umol/L incubated for 48 hrs by SRB assay relative to control; settings: MCF7, 48 h, dose 10 µmol/L, read-out: Activity
UACC-62 = assay: Anticancer activity against human UACC-62 cells assessed as cell growth at 10 umol/L incubated for 48 hrs by SRB assay relative to control; settings: UACC-62, 48 h, dose 10 µmol/L, read-out: Activity
ACHN = assay: Anticancer activity against human ACHN cells assessed as cell growth at 10 umol/L incubated for 48 hrs by SRB assay relative to control; settings: dose 10 µmol/L, read-out: Activity
SF-268 = assay: Anticancer activity against human SF-268 cells assessed as cell growth at 10 umol/L incubated for 48 hrs by SRB assay relative to control; settings: SF-268, 48 h, dose 10 µmol/L, read-out: Activity
Hs-578T = assay: Anticancer activity against human Hs-578T cells assessed as cell growth at 10 umol/L incubated for 48 hrs by SRB assay relative to control; settings: dose 10 µmol/L, read-out: Activity
K562 [2] = assay: Induction of cell cycle arrest in human K562 cells at S phase at 0.5 uM incubated for 3 days by RNase/PI staining based flow cytometry (reference value: 16 %); settings: time 3 day
SK-OV-3 = assay: Anticancer activity against human SK-OV-3 cells assessed as cell growth at 10 umol/L incubated for 48 hrs by SRB assay relative to control; settings: SK-OV-3, 48 h, dose 10 µmol/L, read-out: Activity
HOP-62 = assay: Anticancer activity against human HOP-62 cells assessed as cell growth at 10 umol/L incubated for 48 hrs by SRB assay relative to control; settings: HOP-62, 48 h, dose 10 µmol/L, read-out: Activity
MDA-MB-468 = assay: Anticancer activity against human MDA-MB-468 cells assessed as cell growth at 10 umol/L incubated for 48 hrs by SRB assay relative to control; settings: MDA-MB-468, 48 h, dose 10 µmol/L, read-out: Activity
SW-620 = assay: Anticancer activity against human SW620 cells assessed as cell growth at 10 umol/L incubated for 48 hrs by SRB assay relative to control; settings: SW-620, 48 h, dose 10 µmol/L, read-out: Activity

Row | SMILES | growth at 10 µM (TK-10) | growth at 10 µM (CCRF-CEM) | growth at 10 µM (SK-MEL-2) | growth at 10 µM (NCI-H522) | growth at 10 µM (MDA-MB-231) | growth at 10 µM (PC-3) | growth at 10 µM (U-251) | growth at 10 µM (LOX IMVI) | growth at 10 µM (HOP-92) | growth at 10 µM (MDA-MB-435) | growth at 10 µM (OVCAR-4) | growth at 10 µM (NCI/ADR-RES) | growth at 10 µM (CAKI-1) | growth at 10 µM (UO-31) | growth at 10 µM (RPMI-8226) | growth at 10 µM (SF-539) | growth at 10 µM (NCI-H23) | growth at 10 µM (K562 [1]) | growth at 10 µM (HCT-15) | growth at 10 µM (786-0) | other results
1 | CCN1C(=O)N(CC)C2C1NN=c1s/c(=C\c3ccc(Cl)cc3Cl)c(=O)n12 (stereo not given) | 67.7% | -52.1% | -20.8% | -8.8% | 12.4% | 24.6% | 11% | 18.3% | 50.9% | -24.8% | 46.1% | 5.7% | 21.1% | 35.9% | 16.5% | 12.8% | 28.4% | 83.7% | 9.5% | 20.6% | growth at 10 µM (MCF7): 14%; growth at 10 µM (UACC-62): 28.9%; growth at 10 µM (ACHN): 26.7%; growth at 10 µM (SF-268): 42.3%; growth at 10 µM (Hs-578T): 15.8%; Activity (K562 [2]): 14%; growth at 10 µM (SK-OV-3): 29.2%; growth at 10 µM (HOP-62): 33.5%; growth at 10 µM (MDA-MB-468): 5.4%; growth at 10 µM (SW-620): 20.5%
2 | COc1cc2c(c(OC)c1OC)-c1ccc(OC)c(=O)cc1[C@@H](NC(C)=O)CC2 [COLCHICINE] | 52.7% | -38.2% | -32% | -64.2% | 11.7% | -28.6% | 19% | 26.5% | 2.4% | -50.8% | 56.4% | -20.9% | 20.3% | 21.2% | 2.3% | 7.9% | 12.6% | -25.7% | -16.8% | 15.4% | growth at 10 µM (MCF7): -9.6%; growth at 10 µM (UACC-62): 19.1%; growth at 10 µM (ACHN): 30.5%; growth at 10 µM (SF-268): 35.1%; growth at 10 µM (Hs-578T): -7.1%; Activity (K562 [2]): 19%; growth at 10 µM (SK-OV-3): 36.1%; growth at 10 µM (HOP-62): 20%; growth at 10 µM (MDA-MB-468): 70.5%; growth at 10 µM (SW-620): 26.4%
